Measurements published in the NIST ThermoML archive (doi:10.1016/j.jct.2012.03.003).

Assay: xn = mol fraction of the nth substance listed
Details: Liquid, Vibrating tube method

COc1cc2c(cc1O)CC1c3c(cc(O)c(OC)c3-2)CCN1C (stereo not given) [boldine] + CCO
Details | mass density [kg/m3]
342.88 K, 1000 kPa, x1 = 0.0267 | 802.49
342.88 K, 2000 kPa, x1 = 0.0267 | 803.51
342.88 K, 3000 kPa, x1 = 0.0267 | 804.51
342.88 K, 4000 kPa, x1 = 0.0267 | 805.52
342.88 K, 5000 kPa, x1 = 0.0267 | 806.51
342.88 K, 6000 kPa, x1 = 0.0267 | 807.51
342.88 K, 7000 kPa, x1 = 0.0267 | 808.51
342.88 K, 8000 kPa, x1 = 0.0267 | 809.49
342.88 K, 9000 kPa, x1 = 0.0267 | 810.47
342.88 K, 10000 kPa, x1 = 0.0267 | 811.43
342.88 K, 11000 kPa, x1 = 0.0267 | 812.4
342.88 K, 12000 kPa, x1 = 0.0267 | 813.36
342.88 K, 13000 kPa, x1 = 0.0267 | 814.3
342.88 K, 14000 kPa, x1 = 0.0267 | 815.22
342.88 K, 15000 kPa, x1 = 0.0267 | 816.14
342.88 K, 16000 kPa, x1 = 0.0267 | 817.05
342.88 K, 17000 kPa, x1 = 0.0267 | 817.95
342.88 K, 18000 kPa, x1 = 0.0267 | 818.81
342.88 K, 19000 kPa, x1 = 0.0267 | 819.68
342.88 K, 20000 kPa, x1 = 0.0267 | 820.53
342.9 K, 1000 kPa, x1 = 0.0196 | 790.39
342.9 K, 2000 kPa, x1 = 0.0196 | 791.42
342.9 K, 3000 kPa, x1 = 0.0196 | 792.45
342.9 K, 4000 kPa, x1 = 0.0196 | 793.47
342.9 K, 5000 kPa, x1 = 0.0196 | 794.49
342.9 K, 6000 kPa, x1 = 0.0196 | 795.52
342.9 K, 7000 kPa, x1 = 0.0196 | 796.52
342.9 K, 8000 kPa, x1 = 0.0196 | 797.53
342.9 K, 9000 kPa, x1 = 0.0196 | 798.53
342.9 K, 10000 kPa, x1 = 0.0196 | 799.52
342.9 K, 11000 kPa, x1 = 0.0196 | 800.49
342.9 K, 12000 kPa, x1 = 0.0196 | 801.46
342.9 K, 13000 kPa, x1 = 0.0196 | 802.42
342.9 K, 14000 kPa, x1 = 0.0196 | 803.37
342.9 K, 15000 kPa, x1 = 0.0196 | 804.3
342.9 K, 16000 kPa, x1 = 0.0196 | 805.22
342.9 K, 17000 kPa, x1 = 0.0196 | 806.13
342.9 K, 18000 kPa, x1 = 0.0196 | 807.03
342.9 K, 19000 kPa, x1 = 0.0196 | 807.91
342.9 K, 20000 kPa, x1 = 0.0196 | 808.78
342.92 K, 1000 kPa, x1 = 0.0012 | 748.44
342.92 K, 1000 kPa, x1 = 0.0074 | 761.5
342.92 K, 2000 kPa, x1 = 0.0012 | 749.56
342.92 K, 2000 kPa, x1 = 0.0074 | 762.58
342.92 K, 3000 kPa, x1 = 0.0012 | 750.65
342.92 K, 3000 kPa, x1 = 0.0074 | 763.66
342.92 K, 4000 kPa, x1 = 0.0012 | 751.76
342.92 K, 4000 kPa, x1 = 0.0074 | 764.73
342.92 K, 5000 kPa, x1 = 0.0012 | 752.85
342.92 K, 5000 kPa, x1 = 0.0074 | 765.81
342.92 K, 6000 kPa, x1 = 0.0012 | 753.94
342.92 K, 6000 kPa, x1 = 0.0074 | 766.87
342.92 K, 7000 kPa, x1 = 0.0012 | 755.02
342.92 K, 7000 kPa, x1 = 0.0074 | 767.93
342.92 K, 8000 kPa, x1 = 0.0012 | 756.1
342.92 K, 8000 kPa, x1 = 0.0074 | 768.98
342.92 K, 9000 kPa, x1 = 0.0012 | 757.16
342.92 K, 9000 kPa, x1 = 0.0074 | 770.04
342.92 K, 10000 kPa, x1 = 0.0012 | 758.21
342.92 K, 10000 kPa, x1 = 0.0074 | 771.07
342.92 K, 11000 kPa, x1 = 0.0012 | 759.27
342.92 K, 11000 kPa, x1 = 0.0074 | 772.09
342.92 K, 12000 kPa, x1 = 0.0012 | 760.3
342.92 K, 12000 kPa, x1 = 0.0074 | 773.12
342.92 K, 13000 kPa, x1 = 0.0012 | 761.33
342.92 K, 13000 kPa, x1 = 0.0074 | 774.1
342.92 K, 14000 kPa, x1 = 0.0012 | 762.33
342.92 K, 14000 kPa, x1 = 0.0074 | 775.1
342.92 K, 15000 kPa, x1 = 0.0012 | 763.33
342.92 K, 15000 kPa, x1 = 0.0074 | 776.07
342.92 K, 16000 kPa, x1 = 0.0012 | 764.31
342.92 K, 16000 kPa, x1 = 0.0074 | 777.04
342.92 K, 17000 kPa, x1 = 0.0012 | 765.26
342.92 K, 17000 kPa, x1 = 0.0074 | 777.98
342.92 K, 18000 kPa, x1 = 0.0012 | 766.22
342.92 K, 18000 kPa, x1 = 0.0074 | 778.92
342.92 K, 19000 kPa, x1 = 0.0012 | 767.14
342.92 K, 19000 kPa, x1 = 0.0074 | 779.83
342.92 K, 20000 kPa, x1 = 0.0012 | 768.07
342.92 K, 20000 kPa, x1 = 0.0074 | 780.71
343.02 K, 1000 kPa, x1 = 0.0136 | 775.25
343.02 K, 2000 kPa, x1 = 0.0136 | 776.31
343.02 K, 3000 kPa, x1 = 0.0136 | 777.37
343.02 K, 4000 kPa, x1 = 0.0136 | 778.42
343.02 K, 5000 kPa, x1 = 0.0136 | 779.47
343.02 K, 6000 kPa, x1 = 0.0136 | 780.52
343.02 K, 7000 kPa, x1 = 0.0136 | 781.56
343.02 K, 8000 kPa, x1 = 0.0136 | 782.6
343.02 K, 9000 kPa, x1 = 0.0136 | 783.63
343.02 K, 10000 kPa, x1 = 0.0136 | 784.63
343.02 K, 11000 kPa, x1 = 0.0136 | 785.65
343.02 K, 12000 kPa, x1 = 0.0136 | 786.65
343.02 K, 13000 kPa, x1 = 0.0136 | 787.64
343.02 K, 14000 kPa, x1 = 0.0136 | 788.62
343.02 K, 15000 kPa, x1 = 0.0136 | 789.58
343.02 K, 16000 kPa, x1 = 0.0136 | 790.53
343.02 K, 17000 kPa, x1 = 0.0136 | 791.46
343.02 K, 18000 kPa, x1 = 0.0136 | 792.39
343.02 K, 19000 kPa, x1 = 0.0136 | 793.28
343.02 K, 20000 kPa, x1 = 0.0136 | 794.17
352.79 K, 1000 kPa, x1 = 0.0196 | 780.8
352.79 K, 2000 kPa, x1 = 0.0196 | 781.92
352.79 K, 3000 kPa, x1 = 0.0196 | 783.03
352.79 K, 4000 kPa, x1 = 0.0196 | 784.09
352.79 K, 5000 kPa, x1 = 0.0196 | 785.23
352.79 K, 6000 kPa, x1 = 0.0196 | 786.32
352.79 K, 7000 kPa, x1 = 0.0196 | 787.4
352.79 K, 8000 kPa, x1 = 0.0196 | 788.47
352.79 K, 9000 kPa, x1 = 0.0196 | 789.53
352.79 K, 10000 kPa, x1 = 0.0196 | 790.58
352.79 K, 11000 kPa, x1 = 0.0196 | 791.62
352.79 K, 12000 kPa, x1 = 0.0196 | 792.64
352.79 K, 13000 kPa, x1 = 0.0196 | 793.65
352.79 K, 14000 kPa, x1 = 0.0196 | 794.65
352.79 K, 15000 kPa, x1 = 0.0196 | 795.64
352.79 K, 16000 kPa, x1 = 0.0196 | 796.61
352.79 K, 17000 kPa, x1 = 0.0196 | 797.57
352.79 K, 18000 kPa, x1 = 0.0196 | 798.51
352.79 K, 19000 kPa, x1 = 0.0196 | 799.44
352.79 K, 20000 kPa, x1 = 0.0196 | 800.36
352.81 K, 1000 kPa, x1 = 0.0012 | 738.74
352.81 K, 1000 kPa, x1 = 0.0136 | 765.67
352.81 K, 2000 kPa, x1 = 0.0012 | 739.95
352.81 K, 2000 kPa, x1 = 0.0136 | 766.82
352.81 K, 3000 kPa, x1 = 0.0012 | 741.15
352.81 K, 3000 kPa, x1 = 0.0136 | 767.97
352.81 K, 4000 kPa, x1 = 0.0012 | 742.33
352.81 K, 4000 kPa, x1 = 0.0136 | 769.1
352.81 K, 5000 kPa, x1 = 0.0012 | 743.51
352.81 K, 5000 kPa, x1 = 0.0136 | 770.24
352.81 K, 6000 kPa, x1 = 0.0012 | 744.68
352.81 K, 6000 kPa, x1 = 0.0136 | 771.36
352.81 K, 7000 kPa, x1 = 0.0012 | 745.85
352.81 K, 7000 kPa, x1 = 0.0136 | 772.46
352.81 K, 8000 kPa, x1 = 0.0012 | 746.99
352.81 K, 8000 kPa, x1 = 0.0136 | 773.56
352.81 K, 9000 kPa, x1 = 0.0012 | 748.13
352.81 K, 9000 kPa, x1 = 0.0136 | 774.65
352.81 K, 10000 kPa, x1 = 0.0012 | 749.26
352.81 K, 10000 kPa, x1 = 0.0136 | 775.73
352.81 K, 11000 kPa, x1 = 0.0012 | 750.37
352.81 K, 11000 kPa, x1 = 0.0136 | 776.81
352.81 K, 12000 kPa, x1 = 0.0012 | 751.47
352.81 K, 12000 kPa, x1 = 0.0136 | 777.86
352.81 K, 13000 kPa, x1 = 0.0012 | 752.55
352.81 K, 13000 kPa, x1 = 0.0136 | 778.9
352.81 K, 14000 kPa, x1 = 0.0012 | 753.61
352.81 K, 14000 kPa, x1 = 0.0136 | 779.93
352.81 K, 15000 kPa, x1 = 0.0012 | 754.67
352.81 K, 15000 kPa, x1 = 0.0136 | 780.95
